Test results reported in article PMC12017303 (Science Advances, 2025).

How the values were obtained:
SARS-CoV-2 Beta variant = details: mouse, in vivo
[1] = system: SARS-CoV-2 variants WA1, XBB.1.5, XBB.1.16, and EG.5.1; experiment: microbe, parasite or virus in culture; format: cell-based; details: Severe acute respiratory syndrome coronavirus 2, read-out: EC50 range against all viruses tested

SMILES | IC50 for decrease in lung virus replication (SARS-CoV-2 Beta variant) | SARS-CoV-2 N protein in lung (immunohistochemistry) (SARS-CoV-2 Beta variant) | mononuclear cell infiltration and respiratory epithelial cell injury in lung (SARS-CoV-2 Beta variant) | reduction in viral load compared to the ensitrelvir-treated arm (SARS-CoV-2 Beta variant) | reduction in viral load compared to vehicle-treated animals (SARS-CoV-2 Beta variant) | reduction in viral titers (SARS-CoV-2 Beta variant) | viral titers after three doses, result in words (SARS-CoV-2 Beta variant) | EC50 [1] | reduction in virus replication compared to the vehicle (plaque assay) (SARS-CoV-2 Beta variant)
C#CCn1c(C)c(-n2nnc3ccccc32)c(=O)n(-c2cncc3ccccc23)c1=O [AVI-4516] | 14.7 mg/kg | minimal or no viral protein present | notably absent |  |  |  |  |  | 
C#CCn1c(C)c(-n2nnc3cc(F)c(F)cc32)c(=O)n(-c2cncc3ccccc23)c1=O [AVI-4773] |  |  |  | > 3 log | ~ 6 log | > 1,000,000 | below detectable levels |  | 
CC(C)(C)[C@H](NC(=O)C(F)(F)F)C(=O)N1C[C@H]2[C@@H]([C@H]1C(=O)N[C@H](C#N)C[C@@H]1CCNC1=O)C2(C)C [nirmatrelvir, reference compound] |  | minimal or no viral protein present |  |  |  |  |  | 21 to 67 nM | 2 log
